From ChEMBL document CHEMBL1201862, “PubChem BioAssay data set” (2004)
The source made the active and inactive calls.

Key:
[1] = biological target: T1, Short transient receptor potential channel 4 (Mus musculus, UniProt Q9QUQ5); test: mouse TRPC4 channel activators, dose response, cell-based, HEK293 TRPC4/mu-opioid, Fluo-4 calcium (AID 434937); assay type: functional
T1 sequence (Q9QUQ5 whole entry): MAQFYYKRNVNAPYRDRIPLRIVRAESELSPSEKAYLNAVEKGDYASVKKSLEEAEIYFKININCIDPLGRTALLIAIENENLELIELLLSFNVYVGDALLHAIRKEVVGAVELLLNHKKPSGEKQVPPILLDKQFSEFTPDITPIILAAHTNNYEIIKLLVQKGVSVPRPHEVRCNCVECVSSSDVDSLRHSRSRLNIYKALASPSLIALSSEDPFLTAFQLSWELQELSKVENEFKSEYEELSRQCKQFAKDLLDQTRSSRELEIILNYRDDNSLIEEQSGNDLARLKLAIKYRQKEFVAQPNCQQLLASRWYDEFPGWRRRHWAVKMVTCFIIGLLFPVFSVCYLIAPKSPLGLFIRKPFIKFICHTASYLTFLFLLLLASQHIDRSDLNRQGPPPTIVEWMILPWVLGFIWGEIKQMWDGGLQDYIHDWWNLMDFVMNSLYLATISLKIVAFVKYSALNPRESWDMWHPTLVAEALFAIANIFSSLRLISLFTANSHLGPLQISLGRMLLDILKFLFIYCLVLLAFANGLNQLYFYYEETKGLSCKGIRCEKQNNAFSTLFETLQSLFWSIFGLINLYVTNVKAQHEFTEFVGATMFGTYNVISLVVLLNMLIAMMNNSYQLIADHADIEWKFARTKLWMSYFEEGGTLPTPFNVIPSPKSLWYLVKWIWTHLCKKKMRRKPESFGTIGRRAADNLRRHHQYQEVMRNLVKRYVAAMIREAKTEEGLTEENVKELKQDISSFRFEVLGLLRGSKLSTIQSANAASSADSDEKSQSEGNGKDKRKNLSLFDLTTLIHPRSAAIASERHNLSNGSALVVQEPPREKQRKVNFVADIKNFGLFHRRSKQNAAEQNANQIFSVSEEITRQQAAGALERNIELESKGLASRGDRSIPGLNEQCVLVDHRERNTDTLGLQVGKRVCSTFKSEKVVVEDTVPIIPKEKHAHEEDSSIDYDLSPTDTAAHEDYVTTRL

[2] = biological target: T2, RNA-binding protein pos-1 (Caenorhabditis elegans, UniProt G5EF15); test: inhibitors of POS-1/mex-3 RNA binding, dose response, biochemical, fluorescence polarization (AID 1964);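 note: purified POS-1 fused to maltose binding protein made in E. coli; potency of compounds blocking POS-1 binding to fluorescent RNA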
T2 sequence (G5EF15 whole entry): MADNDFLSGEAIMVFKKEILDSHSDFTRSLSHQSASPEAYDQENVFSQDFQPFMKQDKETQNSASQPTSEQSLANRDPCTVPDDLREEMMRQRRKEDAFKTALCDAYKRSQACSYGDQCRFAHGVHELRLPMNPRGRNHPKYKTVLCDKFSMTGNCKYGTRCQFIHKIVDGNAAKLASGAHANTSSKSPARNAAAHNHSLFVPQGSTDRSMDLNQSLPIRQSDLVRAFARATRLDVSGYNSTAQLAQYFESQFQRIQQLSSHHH

[3] = biological target: T3, Zinc finger protein mex-5 (Caenorhabditis elegans, UniProt Q9XUB2); test: MEX-5/TCR-2 RNA interaction inhibitors, dose response, biochemical, C. elegans, fluorescence polarization (AID 1960)
T3 sequence (Q9XUB2 whole entry): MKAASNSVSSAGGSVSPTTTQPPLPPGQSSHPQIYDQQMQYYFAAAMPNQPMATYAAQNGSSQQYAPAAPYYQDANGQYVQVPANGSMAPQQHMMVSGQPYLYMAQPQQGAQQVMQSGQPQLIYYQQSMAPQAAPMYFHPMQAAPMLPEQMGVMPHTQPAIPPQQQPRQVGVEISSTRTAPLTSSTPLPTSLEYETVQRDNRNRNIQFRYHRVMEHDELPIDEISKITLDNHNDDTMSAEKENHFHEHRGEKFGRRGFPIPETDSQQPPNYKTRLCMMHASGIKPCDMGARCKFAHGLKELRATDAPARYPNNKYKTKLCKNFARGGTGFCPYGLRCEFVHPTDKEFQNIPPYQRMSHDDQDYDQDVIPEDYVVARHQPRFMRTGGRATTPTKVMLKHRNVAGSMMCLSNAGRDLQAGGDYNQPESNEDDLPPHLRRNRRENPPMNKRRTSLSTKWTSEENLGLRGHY

[4] = biological target: T4, Polyadenylate-binding protein 1 (Homo sapiens, UniProt P11940); test: PABP1 MLLE–PAM2 interaction inhibitors, dose response, miRNA deadenylation inhibitor project, biochemical, fluorescence polarization, Cy5-PAM2 peptide, secondary (AID 602260); assay type: functional; settings: read-out: IC50_Mean
T4 sequence (P11940 whole entry): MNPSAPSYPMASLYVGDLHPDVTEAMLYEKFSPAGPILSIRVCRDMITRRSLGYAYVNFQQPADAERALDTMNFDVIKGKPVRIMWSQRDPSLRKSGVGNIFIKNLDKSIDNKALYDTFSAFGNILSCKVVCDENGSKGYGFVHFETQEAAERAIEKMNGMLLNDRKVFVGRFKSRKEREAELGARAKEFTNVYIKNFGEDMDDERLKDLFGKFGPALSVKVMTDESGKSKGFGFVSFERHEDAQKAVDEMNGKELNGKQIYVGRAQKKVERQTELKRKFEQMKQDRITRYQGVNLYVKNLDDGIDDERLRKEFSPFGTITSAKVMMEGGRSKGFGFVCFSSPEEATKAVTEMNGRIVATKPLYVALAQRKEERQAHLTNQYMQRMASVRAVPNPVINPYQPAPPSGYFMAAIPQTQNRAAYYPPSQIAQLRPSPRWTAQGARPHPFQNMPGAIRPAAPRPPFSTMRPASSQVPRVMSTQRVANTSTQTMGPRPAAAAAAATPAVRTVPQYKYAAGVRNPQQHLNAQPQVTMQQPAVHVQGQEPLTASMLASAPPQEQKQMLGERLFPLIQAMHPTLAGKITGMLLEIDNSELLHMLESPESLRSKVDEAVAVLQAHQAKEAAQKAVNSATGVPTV

[5] = biological target: T4, Polyadenylate-binding protein 1; test: PABP1 MLLE–PAM2 binding inhibitor potency, dose response, biochemical, fluorescence polarization, FITC-PAM2 peptide (AID 602259); assay type: functional; settings: read-out: IC50_Mean
H9c2 = test: cells; assay type: functional, cell-based; settings: Rattus norvegicus, H9c2, Myocardium;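 note: confirmatory concentration-response retest of ultra-high-throughput screening hits for modulation of myocardial damage; cell death induced by hydrogen peroxide oxidative stress; compound pretreatment for 60 min then peroxide exposure for 2 h; potency is for protecting the cells against peroxide damage rather than for killing them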
[6] = biological target: T5, Corticotropin-releasing factor receptor 2/Corticotropin-releasing factor-binding protein (Homo sapiens, UniProt P24387+Q13324); test: Dose Response confirmation of uHTS hits for small molecule antagonists of the CRF-binding protein and CRF-R2 receptor complex.; assay type: functional; settings: read-out: IC50_Mean
T5 sequence (Q13324 whole entry): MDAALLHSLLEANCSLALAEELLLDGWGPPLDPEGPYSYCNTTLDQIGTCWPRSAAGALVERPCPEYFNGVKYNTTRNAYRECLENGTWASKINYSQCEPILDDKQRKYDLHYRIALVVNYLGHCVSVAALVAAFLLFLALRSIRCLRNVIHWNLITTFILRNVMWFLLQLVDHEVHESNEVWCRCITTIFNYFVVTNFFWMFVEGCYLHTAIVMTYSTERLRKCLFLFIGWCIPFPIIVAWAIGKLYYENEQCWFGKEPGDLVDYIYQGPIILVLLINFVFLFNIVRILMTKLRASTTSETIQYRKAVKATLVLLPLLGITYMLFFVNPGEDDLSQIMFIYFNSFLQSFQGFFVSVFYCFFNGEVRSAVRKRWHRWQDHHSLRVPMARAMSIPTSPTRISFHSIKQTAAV
T5 sequence (P24387 whole entry): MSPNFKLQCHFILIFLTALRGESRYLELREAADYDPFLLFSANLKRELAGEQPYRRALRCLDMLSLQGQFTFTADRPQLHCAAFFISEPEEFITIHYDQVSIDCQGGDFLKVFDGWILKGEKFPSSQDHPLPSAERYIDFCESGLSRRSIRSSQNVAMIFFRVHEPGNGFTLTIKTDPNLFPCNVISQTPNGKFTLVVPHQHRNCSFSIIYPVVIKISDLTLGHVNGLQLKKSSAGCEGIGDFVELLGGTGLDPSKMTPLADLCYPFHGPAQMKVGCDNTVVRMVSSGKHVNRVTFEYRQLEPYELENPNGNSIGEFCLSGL

[7] = biological target: T5, Corticotropin-releasing factor receptor 2/Corticotropin-releasing factor-binding protein; test: activators of CRF receptor 2 with binding protein – uHTS hits, confirmation (AID 602473); assay type: functional; settings: read-out: EC50_Mean
[8] = biological target: T6, Rac GTPase-activating protein 1 (Homo sapiens, UniProt Q9H0H5); test: MgcRacGAP GTPase-activating activity inhibitors, confirmation, biochemical, ADP Hunter fluorescence, primary and confirmatory (AID 624330); assay type: functional
T6 sequence (Q9H0H5 whole entry): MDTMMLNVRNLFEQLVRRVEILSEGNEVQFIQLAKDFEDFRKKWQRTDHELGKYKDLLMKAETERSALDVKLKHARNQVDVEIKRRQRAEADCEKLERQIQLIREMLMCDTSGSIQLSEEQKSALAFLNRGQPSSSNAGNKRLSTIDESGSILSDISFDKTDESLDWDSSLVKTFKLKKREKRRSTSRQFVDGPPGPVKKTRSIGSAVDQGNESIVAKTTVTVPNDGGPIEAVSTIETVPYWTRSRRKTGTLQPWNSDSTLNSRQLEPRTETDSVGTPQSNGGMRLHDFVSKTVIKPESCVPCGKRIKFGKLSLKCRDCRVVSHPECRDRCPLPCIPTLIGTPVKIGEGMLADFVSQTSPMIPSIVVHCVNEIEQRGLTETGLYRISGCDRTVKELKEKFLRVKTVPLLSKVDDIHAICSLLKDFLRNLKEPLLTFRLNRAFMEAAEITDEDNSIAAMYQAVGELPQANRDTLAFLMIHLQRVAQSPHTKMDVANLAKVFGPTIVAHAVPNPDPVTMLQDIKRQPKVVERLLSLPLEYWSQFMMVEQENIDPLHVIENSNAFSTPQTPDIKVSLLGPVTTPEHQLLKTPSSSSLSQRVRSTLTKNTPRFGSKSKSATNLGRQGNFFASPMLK

[9] = biological target: T7, Carboxy-terminal domain RNA polymerase II polypeptide A small phosphatase 1 (Homo sapiens, UniProt Q9GZU7); test: inhibitors of CTDSP1, concentration-response testing, biochemical assay, absorbance-based, actives from ultra-high-throughput screening (AID 540297); assay type: functional
T7 sequence (Q9GZU7 whole entry): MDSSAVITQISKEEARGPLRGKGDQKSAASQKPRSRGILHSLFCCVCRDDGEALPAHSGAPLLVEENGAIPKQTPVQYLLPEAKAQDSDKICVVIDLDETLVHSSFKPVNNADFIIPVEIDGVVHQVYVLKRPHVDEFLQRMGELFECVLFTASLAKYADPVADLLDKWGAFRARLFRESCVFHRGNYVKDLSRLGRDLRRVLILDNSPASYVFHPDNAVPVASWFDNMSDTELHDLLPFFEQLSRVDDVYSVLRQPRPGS

[10] = tested on: Streptococcus sp. 'group A'; test: growth inhibition of control SK(-) GAS strain, dose response, counter-screen for streptokinase expression inhibitor project, luminescence, kanamycin, BacTiterGlo, confirmation (AID 1900); assay type: functional, organism-based
Streptokinase A = biological target: T8, Streptokinase A (Streptococcus pyogenes serotype M1, UniProt P10520); test: S. pyogenes streptokinase expression inhibitors, potency, dose response, plasminogen activation absorbance, OD405 (AID 1914); assay type: functional, Streptococcus pyogenes M1 GAS;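 note: secreted streptokinase activity via plasminogen activation per viability signal from cell pellet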
T8 sequence (P10520 whole entry): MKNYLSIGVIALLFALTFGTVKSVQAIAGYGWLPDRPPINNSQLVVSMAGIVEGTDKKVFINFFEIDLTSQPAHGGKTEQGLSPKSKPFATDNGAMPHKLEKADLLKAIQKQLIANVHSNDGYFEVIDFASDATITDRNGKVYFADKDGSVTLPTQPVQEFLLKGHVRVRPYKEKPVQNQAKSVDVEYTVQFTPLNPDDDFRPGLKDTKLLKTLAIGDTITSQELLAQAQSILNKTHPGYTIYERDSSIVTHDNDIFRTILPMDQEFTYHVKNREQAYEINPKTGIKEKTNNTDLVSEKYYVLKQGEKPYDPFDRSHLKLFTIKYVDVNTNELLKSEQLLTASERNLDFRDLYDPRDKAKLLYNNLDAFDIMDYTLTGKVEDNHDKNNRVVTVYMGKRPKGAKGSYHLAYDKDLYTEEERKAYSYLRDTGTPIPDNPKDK

Streptococcus = test: Group A Streptococcus viability loss, dose response, counter-screen for streptokinase expression inhibitor project, luminescence, BacTiterGlo (AID 1915); assay type: functional, organism-based;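 note: potency for reduction of bacterial viability or growth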
[11] = microbe, parasite or virus in culture; assay type: functional; settings: Mycobacterium tuberculosis
cells = assay type: functional

SMILES: COc1ccc(-c2nc(CSCC(=O)NC3CCN(Cc4ccccc4)CC3)c(C)o2)cc1OC
- EC50 [1]: 1.5 µM (active)

SMILES: CC1C2C(C)N(C)C(=O)N(C)C2N(C)C(=O)N1C (stereo not drawn)
- EC50 [2]: 25 µM (active)
- EC50 [3]: 18.5 µM (active)
- IC50 [4]: > 66 µM (inactive)
- IC50 [5]: 29.1 µM (inactive)

SMILES: N#C/C(=C1\CCCN1)c1nc(O)c2ccccc2n1
- IC50 (H9c2): 60.4 µM (inactive)
- IC50 [6]: > 47.1 µM (inactive)
- EC50 [7]: > 53 µM (inactive)

SMILES: Cc1ccc(NC(=O)CNCC(c2ccccc2)N(C)C)cc1F (stereo not drawn)
- EC50 [1]: 0.596 µM (active)
- IC50 [8]: 70.8 µM (active)

SMILES: C=C1c2cccc(OC)c2O[C@H](C(=O)OCC)[C@@H]1CCCCCC
- IC50 [9]: 10.2 µM (active)

SMILES: Cc1nn(-c2cc(Cl)ccc2N)c(=O)c2ccccc12
- IC50 [9]: 63.2 µM (active)

SMILES: COC(=O)CNC(=O)C1Nc2ccccc2C2C=CCC12 (stereo not drawn)
- EC50 [2]: > 300 µM (not active)
- EC50 [3]: 173 µM (active)

SMILES: CN(C)CCCN(C(=O)c1ccc(S(=O)(=O)N2CCCCCC2)cc1)c1nc2ccc(F)cc2s1
- EC50 [1]: 4.22 µM (active)

SMILES: S=C(NCCc1ccccn1)NC1CCCCC1
- EC50 [1]: 6.68 µM (active)

SMILES: Cc1ccc(/C=C2/Sc3ccc(C(=O)N4CCN(c5ccccn5)CC4)cc3NC2=O)cc1
- EC50 [2]: 27.2 µM (active)
- EC50 [10]: 3.03 µM (active)
- EC50 [3]: 5.05 µM (active)
- EC50 (Streptokinase A): > 150 µM (not active)
- EC50 (Streptococcus): 4.43 µM (active)

SMILES: Cc1c(C(=O)N(C)C)sc2nc(-c3ccccn3)nc(O)c12
- CC50 [11]: > 40 µM (active)
- IC50 (cells): 9.8 µM (active)

SMILES: Cc1ccc(C2C(C(=O)c3ccco3)=C(O)C(=O)N2c2nnc(C)s2)cc1 (stereo not drawn)
- EC50 [2]: > 300 µM (not active)
- EC50 [3]: > 300 µM (inconclusive)

SMILES: N#CCC(=O)N/N=C/c1ccc(Sc2nc3ccccc3s2)o1
- IC50 [9]: 9.4 µM (active)

SMILES: Cn1c(=O)[nH]c(=O)c2c1nc(N/N=C/C(Br)=C/c1ccccc1)n2CCO
- EC50 [2]: 206 µM (active)
- EC50 [3]: 55.5 µM (active)

SMILES: COC(=O)COc1cccc(/C=N/NC(=O)CCSc2ccccc2)c1
- IC50 (cells): 4.13 µM (active)

SMILES: C=CCn1cc/c(=N\C=C(C#N)C#N)c2ccccc21
- EC50 [2]: > 300 µM (not active)
- EC50 [3]: > 300 µM (not active)

SMILES: COc1cc(/C=N/NC(=O)c2ccncc2)ccc1OC(=O)c1cccc(F)c1
- IC50 (cells): 0.48 µM (active)

SMILES: C[C@H]1OC[C@@H](C[N+](C)(C)C)O1
- EC50 [1]: 0.188 µM (active)
